Laboratory results as given in US8372863B2, “Tetrahydro-1H-pyrrolo fused pyridones” (Merck Sharp & Dohme Corp., priority 2008, dated 2013).
Counter-ions that a name gives are not always drawn.

Biological target: PHD2 (Homo sapiens, UniProt Q9GZT9)
Assay: PHD2 / HIF-1α peptide hydroxylation assay with time resolved fluorescence readout (PHD2 binding activity)
Assay type: biochemical
Details: FLAG-tagged full length PHD2; 0.2 μM 2-oxoglutarate, 0.5 μM HIF-1α peptide; read-out: PHD2 Activity (PHD2 binding activity expressed as IC50)
Description: After a 30 min preincubation at room temperature, the enzymatic reactions were initiated by the addition of 4 μL of substrates (final concentrations of 0.2 μM 2-oxoglutarate and 0.5 μM HIF-1α peptide biotinyl-DLDLEMLAPYIPMDDDFQL). After 2 hr at room temperature, the reactions were terminated and signals were developed by the addition of a 25 μL quench/detection mix to a final concentration of 1 mM ortho-phenanthroline, 0.1 mM EDTA, 0.5 nM anti-(His)6 LANCE reagent (Perkin-Elmer Life Sciences), 100 nM AF647-labeled streptavidin (Invitrogen), and 2 μg/ml (His)6-VHL complex (S. Tan(2001) Protein Expr. Purif 21, 224-234). The ratio of time resolved fluorescence signals at 665 and 620 nm was determined, and percent inhibition was calculated relative to an uninhibited control sample run in parallel.

Chain of PHD2 (Q9GZT9 whole entry): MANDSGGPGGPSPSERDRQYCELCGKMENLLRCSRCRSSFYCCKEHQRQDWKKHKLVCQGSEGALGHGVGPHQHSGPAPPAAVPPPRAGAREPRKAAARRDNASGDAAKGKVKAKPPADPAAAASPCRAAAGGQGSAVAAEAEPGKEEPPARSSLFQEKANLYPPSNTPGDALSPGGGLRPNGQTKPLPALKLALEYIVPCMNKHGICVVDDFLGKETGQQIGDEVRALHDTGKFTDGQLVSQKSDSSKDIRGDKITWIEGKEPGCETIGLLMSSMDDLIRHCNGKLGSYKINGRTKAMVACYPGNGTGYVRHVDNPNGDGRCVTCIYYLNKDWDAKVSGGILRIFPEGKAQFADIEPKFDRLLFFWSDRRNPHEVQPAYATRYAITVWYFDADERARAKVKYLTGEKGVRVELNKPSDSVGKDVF

Structure (SMILES)	IC50
Cc1cc(C(=O)N2Cc3c(O)c(C(=O)NCC(=O)O)c(=O)n(Cc4ccc(C(F)(F)F)cc4)c3C2)nn1C [Example 31, N-({6-[(1,5-dimethyl-1H-pyrazol-2-ium-3-yl)carbonyl]-4-hydroxy-2-oxo-1-[4-(trifluoromethyl)benzyl]-2,5,6,7-tetrahydro-1H-pyrrolo[3,4-b]pyridin-3-yl}carbonyl)glycine chloride]	< 0.01 µM
C=CCCC(=O)N1Cc2c(O)c(C(=O)NCC(=O)O)c(=O)n(Cc3cccc(-c4ccccc4)c3)c2C1 [Example 43, N-{[1-(biphenyl-3-ylmethyl)-4-hydroxy-2-oxo-6-pent-4-enoyl-2,5,6,7-tetrahydro-1H-pyrrolo[3,4-b]pyridin-3-yl]carbonyl}glycine]	< 0.01 µM
O=C(O)CNC(=O)c1c(O)c2c(n(Cc3cccc(-c4ccccc4)c3)c1=O)CN(C(=O)c1cscn1)C2 [Example 44, N-{[1-(biphenyl-3-ylmethyl)-4-hydroxy-2-oxo-6-(1,3-thiazol-4-ylcarbonyl)-2,5,6,7-tetrahydro-1H-pyrrolo[3,4-b]pyridin-3-yl]carbonyl}glycine]	< 0.01 µM
O=C(O)CNC(=O)c1c(O)c2c(n(Cc3cccc(-c4ccc(Cl)cc4)c3)c1=O)CN(C(=O)c1cscn1)C2 [Example 45, N-{[1-[(4′-chlorobiphenyl-3-yl)methyl]-4-hydroxy-2-oxo-6-(1,3-thiazol-4-ylcarbonyl)-2,5,6,7-tetrahydro-1H-pyrrolo[3,4-b]pyridin-3-yl]carbonyl}glycine]	< 0.01 µM
O=C(O)CNC(=O)c1c(O)c2c(n(Cc3cccc(-c4cncnc4)c3)c1=O)CN(C(=O)c1cscn1)C2 [Example 46, N-{[4-hydroxy-2-oxo-1-(3-pyrimidin-5-ylbenzyl)-6-(1,3-thiazol-4-ylcarbonyl)-2,5,6,7-tetrahydro-1H-pyrrolo[3,4-b]pyridin-3-yl]carbonyl}glycine]	< 0.01 µM
O=C(O)CNC(=O)c1c(O)c2c(n(Cc3cccc(-c4ccccc4Cl)c3)c1=O)CN(C(=O)c1cscn1)C2 [Example 47, N-{[1-[(2′-chlorobiphenyl-3-yl)methyl]-4-hydroxy-2-oxo-6-(1,3-thiazol-4-ylcarbonyl)-2,5,6,7-tetrahydro-1H-pyrrolo[3,4-b]pyridin-3-yl]carbonyl}glycine]	< 0.01 µM
C=CCCC(=O)N1Cc2c(O)c(C(=O)NCC(=O)O)c(=O)n(Cc3ccc(-c4ccccc4)cc3)c2C1C (stereo not shown) [Example 48, N-{[1-(biphenyl-4-ylmethyl)-4-hydroxy-7-methyl-2-oxo-6-pent-4-enoyl-2,5,6,7-tetrahydro-1H-pyrrolo[3,4-b]pyridin-3-yl]carbonyl}glycine]	< 0.01 µM
O=C(O)CNC(=O)c1c(O)c2c(n(Cc3ccccc3-c3ccccc3)c1=O)CN(C(=O)c1cscn1)C2 [Example 49, N-{[1-(biphenyl-2-ylmethyl)-4-hydroxy-2-oxo-6-(1,3-thiazol-4-ylcarbonyl)-2,5,6,7-tetrahydro-1H-pyrrolo[3,4-b]pyridin-3-yl]carbonyl}glycine]	< 0.01 µM
O=C(O)CNC(=O)c1c(O)c2c(n(Cc3cccc(-c4cccc(Cl)c4)c3)c1=O)CN(C(=O)c1cscn1)C2 [Example 50, N-{[1-[(3′-chlorobiphenyl-3-yl)methyl]-4-hydroxy-2-oxo-6-(1,3-thiazol-4-ylcarbonyl)-2,5,6,7-tetrahydro-1H-pyrrolo[3,4-b]pyridin-3-yl]carbonyl}glycine]	< 0.01 µM
O=C(O)CNC(=O)c1c(O)c2c(n(Cc3cccc(-c4ccncc4)c3)c1=O)CN(C(=O)c1cscn1)C2 [Example 51, N-{[4-hydroxy-2-oxo-1-(3-pyridin-4-ylbenzyl)-6-(1,3-thiazol-3-ium-4-ylcarbonyl)-2,5,6,7-tetrahydro-1H-pyrrolo[3,4-b]pyridin-3-yl]carbonyl}glycine trifluoroacetate]	< 0.01 µM
O=C(O)CNC(=O)c1c(O)c2c(n(Cc3cccc(-c4cccnc4)c3)c1=O)CN(C(=O)c1cscn1)C2 [Example 52, N-{[4-hydroxy-2-oxo-1-(3-pyridin-3-ylbenzyl)-6-(1,3-thiazol-3-ium-4-ylcarbonyl)-2,5,6,7-tetrahydro-1H-pyrrolo[3,4-b]pyridin-3-yl]carbonyl}glycine trifluoroacetate]	< 0.01 µM

Other lines, results leading:

IC50	Structure (SMILES)
< 0.01 µM	Cc1ccc(C(=O)N2Cc3c(O)c(C(=O)NCC(=O)O)c(=O)n(Cc4ccc(C(F)(F)F)cc4)c3C2)cn1 [Example 26, N-({4-hydroxy-6-[(6-methylpyridin-3-yl)carbonyl]-2-oxo-1-[4-(trifluoromethyl)benzyl]-2,5,6,7-tetrahydro-1H-pyrrolo[3,4-b]pyridin-3-yl}carbonyl)glycine]
< 0.01 µM	CN1CCC[C@H]1C(=O)N1Cc2c(O)c(C(=O)NCC(=O)O)c(=O)n(Cc3ccc(C(F)(F)F)cc3)c2C1 [Example 27, N-({4-hydroxy-6-(1-methyl-L-prolyl)-2-oxo-1-[4-(trifluoromethyl)benzyl]-2,5,6,7-tetrahydro-1H-pyrrolo[3,4-b]pyridin-3-yl}carbonyl)glycine]
< 0.01 µM	O=C(O)CNC(=O)c1c(O)c2c(n(Cc3ccc(C(F)(F)F)cc3)c1=O)CN(C(=O)[C@@H]1CCC(=O)N1)C2 [Example 28, N-({4-hydroxy-2-oxo-6-(5-oxo-L-prolyl)-1-[4-(trifluoromethyl)benzyl]-2,5,6,7-tetrahydro-1H-pyrrolo[3,4-b]pyridin-3-yl}carbonyl)glycine]
< 0.01 µM	O=C(O)CNC(=O)c1c(O)c2c(n(Cc3ccc(C(F)(F)F)cc3)c1=O)CN(C(=O)c1cscn1)C2 [Example 29, N-({4-hydroxy-2-oxo-6-(1,3-thiazol-4-ylcarbonyl)-1-[4-(trifluoromethyl)benzyl]-2,5,6,7-tetrahydro-1H-pyrrolo[3,4-b]pyridin-3-yl}carbonyl)glycine]
< 0.01 µM	O=C(O)CNC(=O)c1c(O)c2c(n(Cc3ccc(C(F)(F)F)cc3)c1=O)CN(C(=O)c1cncs1)C2 [Example 30, N-({4-hydroxy-2-oxo-6-(1,3-thiazol-5-ylcarbonyl)-1-[4-(trifluoromethyl)benzyl]-2,5,6,7-tetrahydro-1H-pyrrolo[3,4-b]pyridin-3-yl}carbonyl)glycine]
0.01 to 0.1 µM	O=C(O)CNC(=O)c1c(O)c2c(n(Cc3ccc(C(F)(F)F)cc3)c1=O)CN(C(=O)c1ccno1)C2 [Example 33, N-({4-hydroxy-6-(isoxazol-5-ylcarbonyl)-2-oxo-1-[4-(trifluoromethyl)benzyl]-2,5,6,7-tetrahydro-1H-pyrrolo[3,4-b]pyridin-3-yl}carbonyl)glycine]
< 0.01 µM	O=C(O)CNC(=O)c1c(O)c2c(n(Cc3ccc(C(F)(F)F)cc3)c1=O)CN(C(=O)c1nccs1)C2 [Example 34, N-({4-hydroxy-2-oxo-6-(1,3-thiazol-2-ylcarbonyl)-1-[4-(trifluoromethyl)benzyl]-2,5,6,7-tetrahydro-1H-pyrrolo[3,4-b]pyridin-3-yl}carbonyl)glycine]
< 0.01 µM	O=C(O)CNC(=O)c1c(O)c2c(n(Cc3ccc(C(F)(F)F)cc3)c1=O)CN(C(=O)c1csnn1)C2 [Example 35, N-({4-hydroxy-2-oxo-6-(1,2,3-thiadiazol-4-ylcarbonyl)-1-[4-(trifluoromethyl)benzyl}-2,5,6,7-tetrahydro-1H-pyrrolo[3,4-b]pyridin-3-yl}carbonyl)glycine]
< 0.01 µM	O=C(O)CNC(=O)c1c(O)c2c(n(Cc3ccc(C(F)(F)F)cc3)c1=O)CN(C(=O)c1cocn1)C2 [Example 37, N-({4-hydroxy-6-(1,3-oxazol-4-ylcarbonyl)-2-oxo-1-[4-(trifluoromethyl)benzyl]-2,5,6,7-tetrahydro-1H-pyrrolo[3,4-b]pyridin-3-yl}carbonyl)glycine]
< 0.01 µM	O=C(O)CNC(=O)c1c(O)c2c(n(Cc3ccc(-c4ccccc4)cc3)c1=O)CN(C(=O)c1cscn1)C2 [Example 38, N-{[1-(biphenyl-4-ylmethyl)-4-hydroxy-2-oxo-6-(1,3-thiazol-4-ylcarbonyl)-2,5,6,7-tetrahydro-1H-pyrrolo[3,4-b]pyridin-3-yl]carbonyl}glycine]
< 0.01 µM	O=C(O)CNC(=O)c1c(O)c2c(n(Cc3ccc(C(F)(F)F)cc3)c1=O)CN(Cc1ccc(Cl)cc1)C2 [Example 39, N-({6-(4-chlorobenzyl)-4-hydroxy-2-oxo-1-[4-(trifluoromethyl)benzyl]-2,5,6,7-tetrahydro-1H-pyrrolo[3,4-b]pyridin-6-ium-3-yl}carbonyl)glycine trifluoroacetate]
0.01 to 0.1 µM	O=C(O)CNC(=O)c1c(O)c2c(n(Cc3ccc(C(F)(F)F)cc3)c1=O)CN(Cc1cccc(Cl)c1)C2 [Example 40, N-({6-(3-chlorobenzyl)-4-hydroxy-2-oxo-1-[4-(trifluoromethyl)benzyl]-2,5,6,7-tetrahydro-1H-pyrrolo[3,4-b]pyridin-6-ium-3-yl}carbonyl)glycine chloride]
0.01 to 0.1 µM	CCN1Cc2c(O)c(C(=O)NCC(=O)O)c(=O)n(Cc3ccc(C(F)(F)F)cc3)c2C1 [Example 41, N-({6-ethyl-4-hydroxy-2-oxo-1-[4-(trifluoromethyl)benzyl]-2,5,6,7-tetrahydro-1H-pyrrolo[3,4-b]pyridin-6-ium-3-yl}carbonyl)glycine trifluoroacetate]
< 0.01 µM	N#Cc1cccnc1N1Cc2c(O)c(C(=O)NCC(=O)O)c(=O)n(Cc3ccc(C(F)(F)F)cc3)c2C1 [Example 42, N-({6-(3-cyanopyridinium-2-yl)-4-hydroxy-2-oxo-1-[4-(trifluoromethyl)benzyl]-2,5,6,7-tetrahydro-1H-pyrrolo[3,4-b]pyridin-3-yl}carbonyl)glycine trifluoroacetate]
